One molecule from patent US10413532B2, “Pharmaceutical compositions containing a PDE4 inhibitor and a PI3 delta or dual PI3 delta-gamma kinase inhibitor” (Rhizen Pharmaceuticals SA, priority 2012, dated 2019) can be followed below.

One assay has as its system TNFα. Put plainly: LPS induced TNFα in PBMC. The class given is cell-based. The settings on record: 10 nM alone, LPS. The procedure:
PBMC (peripheral blood mononuclear cells) from whole blood were isolated by density gradient using Histopaque and incubated with the desired concentration of inhibitor for 15 minutes. LPS (1 μg/ml) was added and then incubated for 24 hours. The supernatant was collected and TNFα estimated using an eBioscience TNFα ELISA kit.
PBMC from whole blood were isolated by density gradient using Histopaque and incubated with the desired concentration of inhibitor for 15 minutes. LPS (1 μg/m1) was added and then incubated for 24 hours. The supernatant was collected and TNFα estimated using an eBioscience TNFα ELISA kit.

The test system of the next assay is pAkt (S473). Nature of the assay: phospho-Akt (S473) in differentiated U937 cells stimulated with cigarette smoke extract (SDS-PAGE). The class given is cell-based. The settings on record: Homo sapiens, U-937; compound alone; differentiated U937, CSE; read-out: IC50 of inhibition of Akt phosphorylation. The procedure: U-937 monocytes were differentiated into macrophages by incubation with 50 ng/ml PMA for 48 h. Cells were trypsinized and plated at a density of 100,000 per well and stimulated with CSE for 2 h in starvation media. Lysates were made using RIPA buffer and run by SDS-PAGE, transferred to PVDF membrane and probed with phospho-Akt (S473) antibody (Cell signaling, USA) followed by anti-rabbit IgG (Cell signaling, USA). Band intensity was calculated using ImageJ 1.42 (NIH, USA).

The test system of the next assay is MMP-9. Put plainly: MMP-9 release from PMA-induced THP-1 cells (gelatin zymography). The class given is cell-based, human. The settings on record: Homo sapiens; compound alone; THP-1 cells, PMA; read-out: IC50 for the reduction of MMP-9. On the procedure: Gelatinase activity of MMP-9 was determined by zymography. Proteins in supernatant (after incubation of THP-1 cells with 50 ng PMA for 24 h) were separated on gels containing 0.1% gelatin (Sigma, USA). Gels were re-natured by incubation in 2.5% Triton X-100 for 30 min, incubated overnight in substrate buffer (50 mMTris-HCl, pH 7.5) containing 10 mM CaCl2 and 0.05% ZnCl2 at 37° C. and stained with Coomassie brilliant blue (0.5%). […] Molecular weight markers (Fermentas, Lithuania) were run with each gel. Band intensity was calculated using ImageJ 1.42 (NIH, USA).

A further assay relates to neutrophil infiltration. Put plainly: Lipopolysaccharide induced pulmonary neutrophilia in female Wistar rats. The class given is in vivo. On the procedure: After the quarantine period, fasted animals were randomized and divided into groups depending on their body weights. Test compound was prepared as a suspension in a vehicle consisting of 0.5% methylcellulose in which Tween 80 was used as a suspending agent. Compounds or vehicle were administered by oral gavage in a volume of 10 mL/kg. Animals were anaesthetized with ketamine and LPS solution was administered intratracheally 30 minutes after compound administration at a dose of 1 mg/kg. Six hours after LPS instillation, animals were exsanguinated under anaesthesia, and the trachea was cannulated, and lungs were lavaged with 5-ml aliquots of heparinised PBS (1 unit/ml) four times through the tracheal cannula (total volume 20 ml). Bronchioalveolar (BAL) fluid was stored at 2-8° C. until assayed for total cell and differential leukocyte count. BAL fluid was centrifuged (500×g for 10 min) and the resulting cell pellet was resuspended in 0.5 ml of heparinised saline. The total numbers of white blood cells were determined in BAL fluid or blood using a cell counter and were adjusted to 1×10^6 cell/ml. Differential cell count was calculated manually. One hundred microliters of the cell suspension was centrifuged using cytospin 3 to prepare a cell smear. The cell smear was stained with a blood staining solution for differentiation and slides were microscopically observed to identify eosinophils according to their morphological characteristics. The number of each cell type among 300 white blood cells in the cell smear was determined and expressed as a percentage of total cells. The number of eosinophil in BALF was calculated.
The procedure for LPS induced pulmonary neutrophilia in female Wistar rats as described in Example 1 was performed with compound A1 and roflumilast.

In assay [1] the test system is macrophage and neutrophil infiltration. Put plainly: Chronic cigarette smoke induced cell infiltration in male Balb/c mice. Conditions: alone at 1 mg/kg oral; chronic CS, mouse. In kind it is in vivo. On the procedure:
Animals were acclimatized for seven days prior to the start of the experiment. Animals were randomly distributed to various groups based on their body weights. Mice were exposed to the mainstream smoke of 4 cigarettes from day 1 to day 11. Exposure to the smoke of each cigarette lasted for […] (each cigarette was completely burned in the first two minutes, followed by an air flow with animal ventilator) and were exposed for the next 20 min with fresh room air. After every second cigarette an additional break of 20 min with exposure to fresh room air was conducted. Control animals were exposed to the room air chamber. Test compound was administered by the oral route from day 6 to day 11 before 30 mins whole body smoke exposure. On day 12, 24 hours after the last cigarette smoke (CS) exposure animals were exsanguinated under anaesthesia, and the trachea was cannulated and the lungs were lavaged with 0.5 ml aliquots of heparinised PBS (1 unit/nil) four times through tracheal cannula (total volume 2 ml). Bronchioalveolar (BAL) collected was stored at 2-8° C. until assayed for total cell and differential leukocyte count. BAL fluid was centrifuged (500×g for 10 min) and the resulting cell pellet was resuspended in 0.5 ml of heparinised saline. The total number of white blood cells was determined in BAL fluid and blood using a blood cell counter and adjusted to 1×10^6 cell/ml. Differential cell count was calculated manually Forty microliters of the cell suspension was centrifuged using cytospin 3 to prepare a cell smear. The cell smear was stained with a blood staining solution for differentiation and microscopically observed by identifying each cell according to its morphological characteristics. The number of each cell type among 300 white blood cells in the cell smear was determined and expressed as a percentage, and the number of neutrophils and macrophages in each BAL fluid were calculated.

For orientation: IC50 means the point on the concentration scale where inhibition reaches its midpoint. Turning to `O=C(Nc1c(Cl)cncc1Cl)c1ccc(OC(F)F)c(OCC2CC2)c1` [Compound A, roflumilast, reference compound], the “decrease of TNFα secretion” value in the assay on TNFα came to 25%. Also, the IC50 stood at 1930 nM with pAkt (S473) and 577 nM in the assay on MMP-9. In addition, the “percent inhibition of neutrophil infiltration” value is reported as −7.89% with neutrophil infiltration (0.3 mg/kg oral, rat BAL fluid 6 h after LPS); 43.46% in the assay with neutrophil infiltration (1 mg/kg oral, dose-response study, rat); 68.02% in the assay on neutrophil infiltration (3 mg/kg oral, rat); 92.21% with neutrophil infiltration (10 mg/kg oral, rat). Besides, in the assay on neutrophil infiltration (Neutrophil, oral, rat LPS pulmonary neutrophilia, read-out: 50% inhibition (ED50) dose, neutrophil infiltration), the ED50 is 1.8 mg/kg. The “inhibition of neutrophil infiltration” value with neutrophil infiltration (combination study, alone at 1.8 mg/kg, rat) amounted to 36.18%; in assay [1], 34.60%. For the same molecule, the “inhibition of macrophage infiltration” value in assay [1] is 6.30%.
